Results from PubChem BioAssay AID330 (DTP/NCI, 2004).
Values joined by “and” are separate entries in the source; they are usually repeats but may differ in a detail not shown here. Equal entries are not always repeated. Toxic doses and inconclusive results are not listed. How the source made its calls: active means survival T/C of 150% or more; inactive means T/C below 125% in these data.

Test system: P388 leukemia ip, CD2F1 mice, survival T/C
Test: NCI In Vivo Anticancer Drug Screen. Data for tumor model P388 Leukemia (intraperitoneal) in CD2F1 (CDF1) mice
Conditions: endpoint: median survival time, higher = longer survival
Summary of the method: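 Mice carrying the transplanted tumor received test compound or vehicle. Survival was recorded in each group, and the value is the treated-group measurement divided by that of the vehicle-treated control group.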

[1] = dose: 100.0 mg/kg/injection, schedule: Q04DX002 (ip), vehicle: saline with Tween-80
[2] = dose: 50.0 mg/kg/injection, schedule: Q01DX009 (ip), vehicle: saline
[3] = dose: 100.0 mg/kg/injection, schedule: Q01DX009 (ip), vehicle: saline
[4] = dose: 200.0 mg/kg/injection, schedule: Q01DX009 (ip), vehicle: saline
[5] = dose: 60.0 mg/kg/injection, schedule: Q01DX005 (ip), vehicle: saline with Tween-80
[6] = dose: 120.0 mg/kg/injection, schedule: Q01DX005 (ip), vehicle: saline with Tween-80
[7] = dose: 240.0 mg/kg/injection, schedule: Q01DX005 (ip), vehicle: saline with Tween-80
[8] = dose: 50.0 mg/kg/injection, schedule: Q01DX009 (ip), vehicle: saline with Tween-80
[9] = dose: 100.0 mg/kg/injection, schedule: Q01DX009 (ip), vehicle: saline with Tween-80
[10] = dose: 200.0 mg/kg/injection, schedule: Q01DX009 (ip), vehicle: saline with Tween-80
[11] = dose: 25.0 mg/kg/injection, schedule: Q01DX005 (ip), vehicle: saline
[12] = dose: 100.0 mg/kg/injection, schedule: Q01DX001 (ip), vehicle: saline with Tween-80
[13] = dose: 200.0 mg/kg/injection, schedule: Q01DX001 (ip), vehicle: saline with Tween-80
[14] = dose: 400.0 mg/kg/injection, schedule: Q01DX001 (ip), vehicle: saline with Tween-80
[15] = dose: 50.0 mg/kg/injection, schedule: Q01DX005 (ip), vehicle: saline
[16] = dose: 100.0 mg/kg/injection, schedule: Q01DX005 (ip), vehicle: saline
[17] = dose: 200.0 mg/kg/injection, schedule: Q01DX005 (ip), vehicle: saline
[18] = dose: 25.0 mg/kg/injection, schedule: Q01DX009 (ip), vehicle: saline with Tween-80
[19] = dose: 50.0 mg/kg/injection, schedule: Q01DX005 (ip), vehicle: Klucel (hydroxypropylcellulose) (HPC)
[20] = dose: 100.0 mg/kg/injection, schedule: Q01DX005 (ip), vehicle: Klucel (hydroxypropylcellulose) (HPC)
[21] = dose: 200.0 mg/kg/injection, schedule: Q01DX005 (ip), vehicle: Klucel (hydroxypropylcellulose) (HPC)
[22] = dose: 50.0 mg/kg/injection, schedule: Q01DX005 (ip), vehicle: saline with Tween-80
[23] = dose: 100.0 mg/kg/injection, schedule: Q01DX005 (ip), vehicle: saline with Tween-80
[24] = dose: 200.0 mg/kg/injection, schedule: Q01DX005 (ip), vehicle: saline with Tween-80
[25] = dose: 25.0 mg/kg/injection, schedule: Q04DX002 (ip), vehicle: saline with Tween-80
[26] = dose: 50.0 mg/kg/injection, schedule: Q04DX002 (ip), vehicle: saline with Tween-80

Measured: T/C

CC(C)C1CCC(C)C1C(N)=O (configuration not stated)
inactive: [1] 103 % of control | dose: 200.0 mg/kg/injection, schedule: Q04DX002 (ip), vehicle: saline with Tween-80 99 % of control | dose: 400.0 mg/kg/injection, schedule: Q04DX002 (ip), vehicle: saline with Tween-80 99 % of control

Nc1ccc2nc(N)sc2c1
inactive: [2] 100 % of control | [3] 93 % of control | [4] 101 % of control

CCOC(=O)C1=C(Nc2ccc(Cl)cc2)C(=O)N(C(C)(C)C)C1
inactive: [5] 111 % of control | [6] 108 % of control | [7] 109 % of control

N#Cc1cccn1OCN1C(=O)c2ccccc2C1=O
inactive: dose: 25.0 mg/kg/injection, schedule: Q04DX003 (ip), vehicle: Klucel (hydroxypropylcellulose) (HPC) 100 % of control | dose: 50.0 mg/kg/injection, schedule: Q04DX003 (ip), vehicle: Klucel (hydroxypropylcellulose) (HPC) 103 % of control | dose: 100.0 mg/kg/injection, schedule: Q04DX003 (ip), vehicle: Klucel (hydroxypropylcellulose) (HPC) 100 % of control and 92 % of control | dose: 400.0 mg/kg/injection, schedule: Q04DX003 (ip), vehicle: Klucel (hydroxypropylcellulose) (HPC) 87 % of control

NC1=C(Br)C(=O)C(N)=C(Br)C1=O
inactive: dose: 60.0 mg/kg/injection, schedule: Q01DX005 (ip), vehicle: Klucel (hydroxypropylcellulose) (HPC) 100 % of control | dose: 120.0 mg/kg/injection, schedule: Q01DX005 (ip), vehicle: Klucel (hydroxypropylcellulose) (HPC) 97 % of control | dose: 240.0 mg/kg/injection, schedule: Q01DX005 (ip), vehicle: Klucel (hydroxypropylcellulose) (HPC) 105 % of control

CC1(C)S/C(=C\c2ccccc2)c2nc3ccccc3c(=O)n21
inactive: [5] 97 % of control | [6] 91 % of control | [7] 89 % of control

CCC1(CN(C)C)C(=O)N(C)C(=O)N(C2CCCCC2)C1=O (configuration not stated)
inactive: [8] 96 % of control | [9] 102 % of control | [10] 107 % of control

CN1CCCCC1Cc1ccccc1 (configuration not stated)
inactive: dose: 6.25 mg/kg/injection, schedule: Q01DX005 (ip), vehicle: saline 103 % of control | dose: 12.5 mg/kg/injection, schedule: Q01DX005 (ip), vehicle: saline 102 % of control | [11] 100 % of control

CCN(CC)CCOc1ccc(C2N3Cc4ccccc4CN2c2ccccc23)cc1
inactive: dose: 100.0 mg/kg/injection, schedule: Q01DX001 (ip), vehicle: Klucel (hydroxypropylcellulose) (HPC) 99 % of control | dose: 200.0 mg/kg/injection, schedule: Q01DX001 (ip), vehicle: Klucel (hydroxypropylcellulose) (HPC) 108 % of control | dose: 400.0 mg/kg/injection, schedule: Q01DX001 (ip), vehicle: Klucel (hydroxypropylcellulose) (HPC) 99 % of control

Cc1ccccc1C1N(Cc2ccccc2)C(=S)C1(C(C)C)C(C)(C)C (configuration not stated)
inactive: [12] 102 % of control | [13] 92 % of control | [14] 94 % of control

O=C1OC(=O)C2c3ccccc3C=CC12 (configuration not stated)
inactive: dose: 25.0 mg/kg/injection, schedule: Q01DX001 (ip), vehicle: saline with Tween-80 98 % of control | dose: 50.0 mg/kg/injection, schedule: Q01DX001 (ip), vehicle: saline with Tween-80 98 % of control | [12] 104 % of control | [13] 120 % of control | [14] 113 % of control

CO[Si](CCCN)(OC)OC
inactive: [2] 119 % of control | [3] 105 % of control | [4] 110 % of control

CCOC(=O)N(C)N(C)C(=O)OCC
inactive: [15] 100 % of control | [16] 100 % of control | [17] 100 % of control

COc1cccc(C2SCC(=O)N2c2nncs2)c1 (configuration not stated)
inactive: [5] 100 % of control | [6] 97 % of control | [7] 104 % of control

CC(C)CC(NC(=O)CN)C(=O)O (configuration not stated)
inactive: [11] 103 % of control | [18] 95 % of control | [15] 101 % of control | [8] 89 % of control | [16] 103 % of control | [9] 88 % of control | [17] 99 % of control | [10] 91 % of control

CCOC(=O)C1=C(Nc2ccc([N+](=O)[O-])cc2)CCCC1
inactive: dose: 1.56 mg/kg/injection, schedule: Q01DX009 (ip), vehicle: saline 93 % of control | dose: 3.12 mg/kg/injection, schedule: Q01DX009 (ip), vehicle: saline 95 % of control | dose: 6.25 mg/kg/injection, schedule: Q01DX009 (ip), vehicle: saline 95 % of control

C=C1C(=O)OC2(C)C3CCC(C3)C12 (configuration not stated)
inactive: [2] 96 % of control | [3] 113 % of control

C=CB(OCCC)OCCC
inactive: [2] 92 % of control | [3] 92 % of control | [4] 88 % of control

Cc1ccc(S(=O)(=O)C(=S)SCc2ccccc2)cc1
inactive: [19] 106 % of control | [20] 105 % of control | [21] 96 % of control

Cc1ccccc1C(=O)NC1c2ccccc2Oc2ccccc21
inactive: [22] 100 % of control | [23] 100 % of control | [24] 100 % of control

O=[N+]([O-])c1c(Cl)nc(-c2ccccc2)nc1Cl
inactive: dose: 6.25 mg/kg/injection, schedule: Q01DX005 (ip), vehicle: Klucel (hydroxypropylcellulose) (HPC) 101 % of control | dose: 12.5 mg/kg/injection, schedule: Q01DX005 (ip), vehicle: Klucel (hydroxypropylcellulose) (HPC) 93 % of control | dose: 25.0 mg/kg/injection, schedule: Q01DX005 (ip), vehicle: Klucel (hydroxypropylcellulose) (HPC) 100 % of control

CC1CCC23C1CC(CC(=O)C2(C)O)C3(C)C (configuration not stated)
inactive: [5] 100 % of control | [6] 97 % of control | [7] 106 % of control

O=C(O)c1cnccc1C(=O)c1ccccc1
inactive: [19] 101 % of control | [20] 101 % of control | [21] 92 % of control

CN=C(N)N/N=C(\C)c1ccc(-c2ccccc2)cc1
inactive: [25] 105 % of control | [26] 106 % of control

ClCCCSSCCCCl
inactive: dose: 30.0 mg/kg/injection, schedule: Q01DX005 (ip), vehicle: saline with Tween-80 107 % of control | [5] 110 % of control

CCC(=O)OCCN(CCOC(=O)CC)C(=O)C(C)OC(=O)CC (configuration not stated)
inactive: [11] 105 % of control | [15] 110 % of control | [16] 105 % of control | [17] 110 % of control

C=CC(C)(C)c1c2c(c(OC)c3ccc(=O)oc13)C=CC(C)(C)O2
inactive: dose: 25.0 mg/kg/injection, schedule: Q01DX005 (ip), vehicle: saline with Tween-80 105 % of control | [22] 99 % of control and 94 % of control | [23] 96 % of control

CC1OC(OC2C(OC3C(OC4CCC5(C)C(CCC6(C)C5CC=C5C7CC(C)(C)CCC7(C(=O)O)CCC56C)C4(C)C)OCC(O)C3O)OC(CO)C(O)C2O)C(O)C(O)C1O (configuration not stated)
inactive: dose: 3.75 mg/kg/injection, schedule: Q01DX005 (ip), vehicle: distilled water + Tween-80 98 % of control | dose: 7.5 mg/kg/injection, schedule: Q01DX005 (ip), vehicle: distilled water + Tween-80 100 % of control

C1=C2OCOC2=CC2Cc3cc4c(cc3/C=C3\CC5=C(C=C3/C=C/12)OCO5)OCO4 (configuration not stated)
inactive: [22] 92 % of control | [23] 93 % of control | [24] 98 % of control

CSC(/C=C1\C=CC=CN1Cc1ccccc1)=NC#N
inactive: [25] 100 % of control | [26] 92 % of control | [1] 99 % of control

Clc1nnc(C(Cl)Cl)o1
inactive: dose: 50.0 mg/kg/injection, schedule: Q01DX009 (ip), vehicle: Klucel (hydroxypropylcellulose) (HPC) 114 % of control | dose: 100.0 mg/kg/injection, schedule: Q01DX009 (ip), vehicle: Klucel (hydroxypropylcellulose) (HPC) 106 % of control | dose: 200.0 mg/kg/injection, schedule: Q01DX009 (ip), vehicle: Klucel (hydroxypropylcellulose) (HPC) 99 % of control

Nc1cccc2cccnc12 (tested in a mixture with another compound)
inactive: dose: 6.25 mg/kg/injection, schedule: Q01DX009 (ip), vehicle: saline with Tween-80 97 % of control | dose: 12.5 mg/kg/injection, schedule: Q01DX009 (ip), vehicle: saline with Tween-80 103 % of control | [18] 106 % of control | [8] 104 % of control
